One series is described as follows: pH of peptide solutions in DMSO/D5W, with succinate, and with Hiltonol. It counts as physicochemical.
Conditions: not given
Take “H-LRVFIGNIAVNHAPVSLRPGLGLPPGAPPGTVP-OH [CS7412]”: the “pH of peptides in DMSO/D5W” value came to 4.24; the “pH of peptides in DMSO/D5W/5mM S. Succinate spike” value came out at 6.61; the “pH of peptides in DMSO/D5W/5nnM Succinate and Hiltonol” value was found to be 6.96.

Regarding H-SYDSVIRELLQKPNVRVVVL-OH [CS7425], the “pH of peptides in DMSO/D5W” value amounted to 3.78; the “pH of peptides in DMSO/D5W/5mM S. Succinate spike” value came to 6.44; the “pH of peptides in DMSO/D5W/5nnM Succinate and Hiltonol” value came out at 6.65.

Take “H-LPVFIGNIAVNHAPVSLRPGLGLPPGAPPGTVP-OH [CS7438]”: the “pH of peptides in DMSO/D5W” value is on record as 4.24; the “pH of peptides in DMSO/D5W/5mM S. Succinate spike” value was 6.78; the “pH of peptides in DMSO/D5W/5nnM Succinate and Hiltonol” value was determined as 6.96.

Take “H-VQLSIQDVIRRARLSTVPTAQRVALRSGWI-OH [CS7413]”: the “pH of peptides in DMSO/D5W” value came to 3.9; the “pH of peptides in DMSO/D5W/5mM S. Succinate spike” value was 6.73; the “pH of peptides in DMSO/D5W/5nnM Succinate and Hiltonol” value worked out at 7.02.

Regarding “H-DSAVDKGHPNRSALSLTPGLRIGPSGLFLVFLA-OH [CS7411]”, the “pH of peptides in DMSO/D5W” value is reported as 3.87; the “pH of peptides in DMSO/D5W/5mM S. Succinate spike” value is reported as 6.53; the “pH of peptides in DMSO/D5W/5nnM Succinate and Hiltonol” value turned out to be 6.94.

As to H-YLLPKTAVVLRCPALRVRKP-OH [CS7418], the “pH of peptides in DMSO/D5W” value is listed as 3.98; the “pH of peptides in DMSO/D5W/5mM S. Succinate spike” value is reported as 6.76; the “pH of peptides in DMSO/D5W/5nnM Succinate and Hiltonol” value worked out at 6.96.

Turning to “H-SKRGVGAKTLLLPDPFLFWPCLEGTRRSL-OH [CS6934]”, the “pH of peptides in DMSO/D5W” value amounted to 3.86; the “pH of peptides in DMSO/D5W/5mM S. Succinate spike” value is on record as 6.57; the “pH of peptides in DMSO/D5W/5nnM Succinate and Hiltonol” value was found to be 6.79.

On to H-PLMQTELHQLVPEADPEEMA-OH [CS7430], for which the “pH of peptides in DMSO/D5W” value worked out at 3.95; the “pH of peptides in DMSO/D5W/5mM S. Succinate spike” value was 6.23; the “pH of peptides in DMSO/D5W/5nnM Succinate and Hiltonol” value amounted to 6.37.

For “H-SGQPAPEETVLFLGLLHGLLLILRRLRGG-OH [CS6937]”, the “pH of peptides in DMSO/D5W” value came out at 3.87; the “pH of peptides in DMSO/D5W/5mM S. Succinate spike” value turned out to be 6.51; the “pH of peptides in DMSO/D5W/5nnM Succinate and Hiltonol” value came out at 6.76.

Turning to “H-GTKALQLHSIAGRWPRMEPWVVESMSLGVP-OH [CS7415]”, the “pH of peptides in DMSO/D5W” value is 3.91; the “pH of peptides in DMSO/D5W/5mM S. Succinate spike” value was 6.61; the “pH of peptides in DMSO/D5W/5nnM Succinate and Hiltonol” value came out at 6.81.

For the substance “H-ALSLTPGLRIGPSGLFLVFLAESAVDKGHPNRS-OH [CS7410]”, the “pH of peptides in DMSO/D5W” value is 3.99; the “pH of peptides in DMSO/D5W/5mM S. Succinate spike” value worked out at 6.46; the “pH of peptides in DMSO/D5W/5nnM Succinate and Hiltonol” value turned out to be 6.88.

Regarding H-IGALNPKRAAFFAEHYESWE-OH [CS7420], the “pH of peptides in DMSO/D5W” value worked out at 3.84; the “pH of peptides in DMSO/D5W/5mM S. Succinate spike” value came out at 6.38; the “pH of peptides in DMSO/D5W/5nnM Succinate and Hiltonol” value is given as 6.56.

Consider “H-GTYLQGTASALSQSQERPPSVNRVPPSSPSSQE-OH [CS6725]”, for which the “pH of peptides in DMSO/D5W” value stood at 3.95.

In the case of H-KKNITNLSRLVVRPDTDAVY-OH [CS7431], the “pH of peptides in DMSO/D5W” value came out at 3.8; the “pH of peptides in DMSO/D5W/5mM S. Succinate spike” value worked out at 6.45; the “pH of peptides in DMSO/D5W/5nnM Succinate and Hiltonol” value was 6.69.

As for “H-KGASLDAGWGSPRWTTTRMTSASAGRSTRA-OH [CS7414]”, the “pH of peptides in DMSO/D5W” value turned out to be 3.81; the “pH of peptides in DMSO/D5W/5mM S. Succinate spike” value amounted to 6.71; the “pH of peptides in DMSO/D5W/5nnM Succinate and Hiltonol” value was found to be 6.99.

As to “H-LPVFIGNIAVNHAPVSLRPGLGLPPGAPPLVVP-OH [CS6730]”, the “pH of peptides in DMSO/D5W” value was determined as 4.20.

For the substance “H-KPKKVAGAATPKKSIKRTPKKVKKPATAAGTKK-OH [CS6717]”, the “pH of peptides in DMSO/D5W” value is recorded as 4.65.

On to “H-SKLPYPVAKSGKRALARGPAPTEKTPHSGAQLG-OH [CS6719]”, for which the “pH of peptides in DMSO/D5W” value worked out at 3.94.

For “H-PIQVFYTKQPQNDYLHVALVSVFQIHQEAPSSQ-OH [CS6729]”, the “pH of peptides in DMSO/D5W” value is given as 3.87.

For H-WDGPPENDMLLKEICGSLIP-OH [CS7432], the “pH of peptides in DMSO/D5W” value was 3.72; the “pH of peptides in DMSO/D5W/5mM S. Succinate spike” value is reported as 6.22; the “pH of peptides in DMSO/D5W/5nnM Succinate and Hiltonol” value came to 6.45.

For the substance H-AESAQRQGPLGGGEQSANEF-OH [CS7417], the “pH of peptides in DMSO/D5W” value was found to be 3.82; the “pH of peptides in DMSO/D5W/5mM S. Succinate spike” value stood at 6.28; the “pH of peptides in DMSO/D5W/5nnM Succinate and Hiltonol” value stood at 6.5.

Take “H-RGLHSQGLGRGRIAMAQTAGVLRSLEQEE-OH [CS6711]”: the “pH of peptides in DMSO/D5W” value is given as 3.82.

Take “H-EPDQEAVQSSTYKDCNTLHLPTERFSPVR-OH [CS6710]”: the “pH of peptides in DMSO/D5W” value was 3.65.

For the substance “H-LLTDRNTSGTTFTLLGVSDYPELQVP-OH [CS7409]”, the “pH of peptides in DMSO/D5W” value turned out to be 3.86; the “pH of peptides in DMSO/D5W/5mM S. Succinate spike” value was 6.32; the “pH of peptides in DMSO/D5W/5nnM Succinate and Hiltonol” value was 6.62.

As for “H-PPYPYSSPSLVLPTEPHTPKSLQQPGLPS-OH [CS6715]”, the “pH of peptides in DMSO/D5W” value is recorded as 4.11.

As to “H-LLTDRNTSGTTFTLLGVSDYPELQVPIPQAGLG-OH [CS7408]”, the “pH of peptides in DMSO/D5W” value stood at 3.89; the “pH of peptides in DMSO/D5W/5mM S. Succinate spike” value is 6.31; the “pH of peptides in DMSO/D5W/5nnM Succinate and Hiltonol” value was 6.75.

With H-VEQGHVRVGPDVVTHPAFLV-OH [CS7427], the “pH of peptides in DMSO/D5W” value stood at 3.72; the “pH of peptides in DMSO/D5W/5mM S. Succinate spike” value is 6.34; the “pH of peptides in DMSO/D5W/5nnM Succinate and Hiltonol” value is listed as 6.52.

A short description of the next series: Short-term room temperature stability of Pool 3 mixed with Hiltonol (RP-HPLC). It counts as physicochemical. The settings on record: Pool 3 + Hiltonol, 4 Hours RT. The method, then:
A peptide pool (Pool 3) consisting of the five peptides shown in Table 6 below was prepared by dissolution in DMSO and dilution with D5W/Succinate (2 mM) to 2 mg/ml and pooling to a final peptide concentration of 400 μg per ml and a final DMSO concentration of 4%. After preparation, peptides were filtered with a 25 mm Pall PES filter (Cat#4612) and dispensed into Nunc Cryo vials (#375418) in one ml aliquots.
Three samples were prepared by mixing 0.75 ml of Pool3 with 0.25 ml Hiltonol® as planned for the dosage form preparation. The samples were then left at room temperature for 0, 4 and 6 hours and analyzed by RP-HPLC (Table 7). […] As slight increase in a second peak associated with peptide CS6919 was noted, increasing from 14% to 17% and 18% at 4 and 6 hours, respectively. […] Recovery of all peptides was above 90%, indicating no breakdown and loss of any peptides in the final dosage form after 6 hour room temperature incubation.
As for “H-SKRGVGAKTLLLPDPFLFWPCLEGTRRSL-OH [CS6934]”, the “% Impurity” value was determined as 3.06%, the “% Purity” value stood at 96.94%, the “Main Peak” value is given as 5842.22 and the “Total Impurities” value is 184.46. The “Total Peak” value amounted to 6026.68.

Still in this series, the particulars now being: Pool 3 + Hiltonol, 6 Hours RT.
Consider “H-SKRGVGAKTLLLPDPFLFWPCLEGTRRSL-OH [CS6934]”, for which the “% Impurity” value was 3.41%, the “% Purity” value is on record as 96.59%, the “Main Peak” value is listed as 6268.16 and the “Total Impurities” value is reported as 221.46. The “Total Peak” value is 6489.62.

Staying with this series, now noted: T0 Pool 3 + Hiltonol, RP-HPLC.
For the substance “H-SKRGVGAKTLLLPDPFLFWPCLEGTRRSL-OH [CS6934]”, the “% Impurity” value was 3.83%, the “% Purity” value came out at 96.17%, the “Main Peak” value turned out to be 6147.14 and the “Total Impurities” value is on record as 244.49. For the same substance, the “Total Peak” value is 6391.63.

A further series is described as follows: physchem. The note with it: pH 6.
With H-ADRRRQRSTFRAVLHFVEGGESEE-OH, the solubility was < 2000 µg/mL.

H-PSTANYNSFSSAPMPQIPVASVTPT-OH: the solubility is > 2000 µg/mL.

Consider H-SSELTAVNFPSFHVTSLKLMVSPTS-OH, for which the solubility is > 2000 µg/mL.

Take H-PRVDLQGAELWKRLHEIGTEMIITK-OH: the solubility is > 2000 µg/mL.

H-EIHGKCENMTITSRGTTVTPTKETVSLG-OH: the solubility is > 2000 µg/mL.

On to H-EAAFSVGATGIITDYPTALRHYLDNHG-OH, for which the solubility is < 2000 µg/mL.

With H-WCTEMKRVFGFPVHYTDVSNMS-OH, the solubility is > 2000 µg/mL.

As to H-TISLLLIFYNTKEIARTEEHQE-OH, the solubility was < 2000 µg/mL.

For the substance H-STQHADLTIIDNIKEMNFLRRYK-OH, the solubility was > 2000 µg/mL.

As for H-GPLQLPVTRKNMPLPGVVKLPPLPGS-OH, the solubility is > 2000 µg/mL.

Take H-MSQDIKKADEQIESMTYSTERKT-OH: the solubility was > 2000 µg/mL.

With H-YPEPQNKEAFVHSQMYSTDYDQI-OH, the solubility is > 2000 µg/mL.

As to H-NNSKKKWFLFQDSKKIQVEQPQ-OH, the solubility was > 2000 µg/mL.

On to H-SAVSAASIPAMHINQATNGGGS-OH, for which the solubility is < 2000 µg/mL.

With H-TKRQVILLHTELERFLEYLPLRF-OH, the solubility is > 2000 µg/mL.

With H-PAAVDSVTIPPAQCYLSLLHL-OH, the solubility was > 2000 µg/mL.

Turning to H-SQSSTPAMLFPAPAAHRTLTYLSQ-OH, the solubility is > 2000 µg/mL.

Turning to H-LEEVAQRSHAVRSPGSPLILEVG-OH, the solubility is > 2000 µg/mL.

As for H-SLTEESGGAVAFFPGNLSTSSSA-OH, the solubility is > 2000 µg/mL.

On to H-DHAPEFPAREMLLKYQKLLCQERYFL-OH, for which the solubility is < 2000 µg/mL.

Turning to H-NNGPVTILQRIHHMAASHVNITS-OH, the solubility is < 2000 µg/mL.

Turning to H-LARDIPPAVTGKWKLSDLRRYGAVPSG-OH, the solubility was > 2000 µg/mL.

For the substance H-VNGISSQPQVPFYPNLQKSQYYSTV-OH, the solubility is > 2000 µg/mL.

Consider H-EQGPWQSEGQTWRAAGGRVPVPCPAAGPG-OH, for which the solubility is > 2000 µg/mL.

For H-GSVLQFMPFTTVSELMKVSAMSSPKV-OH, the solubility is > 2000 µg/mL.

Turning to H-STEVEPKESPHLARHRHLMKTLVKSLST-OH, the solubility was > 2000 µg/mL.

Take H-SHNELADSGIPENSFNVSSLVE-OH: the solubility is > 2000 µg/mL.

Take H-KAHVEGDGVVEEIIRYHPFLYDRET-OH: the solubility was < 2000 µg/mL.

In the case of H-YLLPKTAVVLRCPALRVRKP-OH, the solubility was > 2000 µg/mL.

Take H-AVGATKVPRNQDWLGVSRQL-OH: the solubility is > 2000 µg/mL.

In the case of H-MAGPKGFQYRALYPFRRER-OH, the solubility was > 2000 µg/mL.

On to H-LNYLRTAKFLEMYGVDLHPVYG-OH, for which the solubility is < 2000 µg/mL.

What is called solubility is how much of the substance goes into solution per volume. Read a low solubility as little dissolved substance.

The record behind these values is patent US20190060428A1, “FORMULATIONS FOR NEOPLASIA VACCINES AND METHODS OF PREPARING THEREOF” (The Broad Institue Inc., priority 2015, published 2019).
